The numbers were not newly measured in patent US7638270B2, “Nucleic acids and corresponding proteins entitled 254P1D6B useful in treatment and detection of cancer” (Agensys, Inc., priority 2003, dated 2009), which cites them from elsewhere.

This data set deals with HLA-DR alleles.

“xKXVAAWTLKAAx: pan-DR-binding epitope peptide (SEQ ID NO: 16); X is cyclohexylalanine, phenylalanine or tyrosine”: the “binding to HLA-DR alleles” value is listed as “bind to most HLA-DR alleles”. Besides, the “stimulation of the response of T helper lymphocytes” value (regardless of HLA type) is recorded as “stimulate the response of T helper lymphocytes from most individuals”.
